Results as given in patent US20230234943A1, “TREX1 INHIBITORS AND USES THEREOF” (Tempest Therapeutics, Inc., priority 2020, published 2023).

biological target: T1, Human TREX1 enzyme (amino acids 1-242) (Homo sapiens, UniProt Q9NSU2); assay: Human TREX1 enzymatic assay with dsDNA native oligonucleotide (Picogreen fluorescence); format: biochemical; conditions: 2 mM dithiothreitol in assay buffer; 50 nM dsDNA oligonucleotide; 30 min preincubation at 25° C.; read-out: TREX1/Human + DTT IC50 AVG
T1 construct: Human TREX1 enzyme (amino acids 1-242)
T1 sequence (Q9NSU2 1-242): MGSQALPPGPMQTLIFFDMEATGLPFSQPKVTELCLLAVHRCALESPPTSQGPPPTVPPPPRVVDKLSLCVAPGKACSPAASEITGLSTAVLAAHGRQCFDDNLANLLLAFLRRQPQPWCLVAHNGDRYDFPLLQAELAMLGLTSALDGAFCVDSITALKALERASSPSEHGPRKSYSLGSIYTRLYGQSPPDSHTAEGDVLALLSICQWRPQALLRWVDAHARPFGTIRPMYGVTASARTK
In short: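 TREX1 (0.8–0.16 nM final) preincubated with compound (300 μM–13 nM or 30 μM–1.5 nM, 2% DMSO) 30 min at 25 °C in Tris pH 7.7, 5 mM MgCl2, 2 mM DTT. Annealed dsDNA (50 nM) added for 5–15 min at 25 °C; EDTA quench with Picogreen fluorescence readout.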

| Structure (SMILES) | IC50 |
| --- | --- |
| COc1c(C)c(-c2nc3cc(N4CCC4)ccc3n2C2CCC2)c(F)c(O)c1O [Example 200, 4-[5-(azetidin-1-yl)-1-cyclobutyl-1H-1,3-benzodiazol-2-yl]-3-fluoro-6-methoxy-5-methylbenzene-1,2-diol] | 1000 to 10000 nM |
| COc1c(C)c(-c2nc3ccccc3n2C2(C)COC2)cc(O)c1O [Example 201, 3-methoxy-4-methyl-5-[1-(3-methyloxetan-3-yl)-1H-1,3-benzodiazol-2-yl]benzene-1,2-diol] | 10000 to 100000 nM |
| COc1cc(-c2nc3c(Cl)c(Cl)ccc3[nH]2)c(F)c(O)c1O [Example 202, 4-(6,7-dichloro-1H/benzo[d]imidazol-2-yl)-3-fluoro-6-methoxybenzene-1,2-diol] | > 100000 nM |
| COc1cc(-c2nc3cc(NC(=O)c4ccccn4)ccc3n2C2(C)COC2)c(F)c(O)c1O [Example 203, N-[2-(2-fluoro-3,4-dihydroxy-5-methoxyphenyl)-1-(3-methyloxetan-3-yl)-1H-1,3-benzodiazol-5-yl]pyridine-2-carboxamide] | ≤ 100 nM |
| COc1cc(-c2nc3cc(NC(=O)C4CC4)ccc3n2C2(C)COC2)c(F)c(O)c1O [Example 204, N-[2-(2-fluoro-3,4-dihydroxy-5-methoxyphenyl)-1-(3-methyloxetan-3-yl)-1H-1,3-benzodiazol-5-yl]cyclopropanecarboxamide] | ≤ 100 nM |
| COc1cc(-c2nc3ccc(C(=O)NC4CC(F)(F)C4)cc3n2C2(C)COC2)c(F)c(O)c1O [Example 205, N-(3,3-difluorocyclobutyl)-2-(2-fluoro-3,4-dihydroxy-5-methoxyphenyl)-1-(3-methyloxetan-3-yl)-1H-benzo[d]imidazole-6-carboxamide] | ≤ 100 nM |
| COc1cc(-c2nc3cc(NC(=O)c4cnoc4)ccc3n2C2(C)COC2)c(F)c(O)c1O [Example 206, N-(2-(2-fluoro-3,4-dihydroxy-5-methoxyphenyl)-1-(3-methyloxetan-3-yl)-1H-benzo[d]imidazol-5-yl)isoxazole-4-carboxamide] | 100 to 1000 nM |
| COc1cc(-c2nc3ccc(NC(C)=O)cc3n2C2(C)COC2)c(F)c(O)c1O [Example 207, N-[2-(2-fluoro-3,4-dihydroxy-5-methoxyphenyl)-1-(3-methyloxetan-3-yl)-1H-1,3-benzodiazol-6-yl]acetamide] | ≤ 100 nM |
| COc1cc(-c2nc3c(NC(C)=O)cccc3n2C2(C)COC2)c(F)c(O)c1O [Example 209, N-[2-(2-fluoro-3,4-dihydroxy-5-methoxyphenyl)-1-(3-methyloxetan-3-yl)-1H-1,3-benzodiazol-4-yl]acetamide] | 100 to 1000 nM |
| COc1cc(-c2nc3cccc(NC(C)=O)c3n2C2(C)COC2)c(F)c(O)c1O [Example 210, N-[2-(2-fluoro-3,4-dihydroxy-5-methoxyphenyl)-1-(3-methyloxetan-3-yl)-1H-1,3-benzodiazol-7-yl]acetamide] | 100 to 1000 nM |
| COC(=O)c1ccc2nc(-c3cc(OC)c(O)c(O)c3F)n(C3(C)COC3)c2c1 [Example 211, methyl 2-(2-fluoro-3,4-dihydroxy-5-methoxyphenyl)-1-(3-methyloxetan-3-yl)-1H-benzo[d]imidazole-6-carboxylate] | ≤ 100 nM |
| CNC(=O)c1ccc2nc(-c3cc(OC)c(O)c(O)c3F)n(C3(C)COC3)c2c1 [Example 212, 2-(2-fluoro-3,4-dihydroxy-5-methoxyphenyl)-N-methyl-1-(3-methyloxetan-3-yl)-1H-benzo[d]imidazole-6-carboxamide] | ≤ 100 nM |
| CNC(=O)c1ccc2nc(-c3cc(OC)c(O)c(O)c3C)n(C3(C)COC3)c2c1 [Example 213, 2-(3,4-dihydroxy-5-methoxy-2-methylphenyl)-N-methyl-1-(3-methyloxetan-3-yl)-1H-1,3-benzodiazole-6-carboxamide] | ≤ 100 nM |
| CNC(=O)c1cccc2c1nc(-c1cc(OC)c(O)c(O)c1F)n2C1(C)COC1 [Example 214, 2-(2-fluoro-3,4-dihydroxy-5-methoxyphenyl)-N-methyl-1-(3-methyloxetan-3-yl)-1H-1,3-benzodiazole-4-carboxamide] | 100 to 1000 nM |
| CCCC(=O)Nc1ccc2c(c1)nc(-c1cc(OC)c(O)c(O)c1F)n2C1(C)COC1 [Example 215, N-(2-(2-fluoro-3,4-dihydroxy-5-methoxyphenyl)-1-(3-methyloxetan-3-yl)-1H-benzo[d]imidazol-5-yl)butyramide] | ≤ 100 nM |
| COc1cc(-c2nc3ccccc3n2C2(C)COC2)c(C#N)c(O)c1O [Example 216, 2,3-dihydroxy-4-methoxy-6-[1-(3-methyloxetan-3-yl)-1H-1,3-benzodiazol-2-yl]benzonitrile] | 10000 to 100000 nM |
| COc1cc(-c2nc3ccccc3n2C2(C)COC2)c(OC(F)F)c(O)c1O [Example 217, 3-(difluoromethoxy)-6-methoxy-4-(1-(3-methyloxetan-3-yl)-1H-benzo[d]imidazol-2-yl)benzene-1,2-diol] | 10000 to 100000 nM |
| CCc1cc2nc(-c3cc(OC)c(O)c(O)c3F)n(C3(C)COC3)c2cn1 [Example 218, 4-[6-ethyl-3-(3-methyloxetan-3-yl)-3H-imidazo[4,5-c]pyridin-2-yl]-3-fluoro-6-methoxybenzene-1,2-diol] | ≤ 100 nM |
| COc1cc(-c2nc3cc(C(N)=O)ncc3n2C2(C)COC2)c(F)c(O)c1O [Example 219, 2-(2-fluoro-3,4-dihydroxy-5-methoxyphenyl)-3-(3-methyloxetan-3-yl)-3H-imidazo[4,5-c]pyridine-6-carboxamide] | 100 to 1000 nM |
| COc1cc(-c2cc3ccccc3n2C2(C)COC2)c(C)c(O)c1O [Example 220] | 100 to 1000 nM |
| COc1cc(-c2nc3cc(N4CCC4)ccc3n2C)c(C(F)(F)F)c(O)c1O [Example 221, 4-(5-(azetidin-1-yl)-1-methyl-1H-benzo[d]imidazol-2-yl)-6-methoxy-3-(trifluoromethyl)benzene-1,2-diol] | 1000 to 10000 nM |
| COc1cc(-c2nc3cc(NCc4ccccc4)ccc3n2C2(C)COC2)c(F)c(O)c1O [Example 222, 4-(5-(benzylamino)-1-(3-methyloxetan-3-yl)-1H-benzo[d]imidazol-2-yl)-3-fluoro-6-methoxybenzene-1,2-diol] | ≤ 100 nM |
| CCNc1ccc2c(c1)nc(-c1cc(OC)c(O)c(O)c1F)n2C1(C)COC1 [Example 223, 4-(5-(ethylamino)-1-(3-methyloxetan-3-yl)-1H-benzo[d]imidazol-2-yl)-3-fluoro-6-methoxybenzene-1,2-diol] | 100 to 1000 nM |
| COc1cc(-c2nc3cc(NC(=O)CCO)ccc3n2C2(C)COC2)c(F)c(O)c1O [Example 224, N-(2-(2-fluoro-3,4-dihydroxy-5-methoxyphenyl)-1-(3-methyloxetan-3-yl)-1H-benzo[d]imidazol-5-yl)-3-hydroxypropanamide] | ≤ 100 nM |
| COc1cc(-c2nc3ccccc3n2C2(C)CCC2)c(C)c(O)c1O [Example 225, 6-methoxy-3-methyl-4-(1-(1-methylcyclobutyl)-1H-benzo[d]imidazol-2-yl)benzene-1,2-diol] | 1000 to 10000 nM |
| COc1cc(-c2nc3ccccc3n2C(C)C)c(C)c(O)c1O [Example 226, 4-(1-isopropyl-1H-benzo[d]imidazol-2-yl)-6-methoxy-3-methylbenzene-1,2-diol] | 1000 to 10000 nM |
| COc1cc(-c2nc3ccccc3n2C(C)(C)C)c(C)c(O)c1O [Example 227, 4-(1-(tert-butyl)-1H-benzo[d]imidazol-2-yl)-6-methoxy-3-methylbenzene-1,2-diol] | 100 to 1000 nM |
